# Values quoted from earlier work, collected in patent publication US20230114993A1 (priority 2019, published 2023).
# Tested on: CADASIL
# Settings: compared to placebo, CADASIL patients
structure (smiles),measurement,value
COc1cc2c(cc1OC)C(=O)C(CC1CCN(Cc3ccccc3)CC1)C2 (stereo not shown) [donepezil],Treatment effect in cognitive and executive function assessments,failed to show any treatment effect
